Data set [1] deals with human sperm. The data set can be described thus: Human sperm hyperactivation (CASA). The note with it: for hyperactivation of human sperm in vitro: capacitating media, inhibitor present; for inhibition of hyperactivation following dilution into inhibitor-free media: preincubation with 10 μM Example 1 or 100 nM Example 133, diluted 1:100. Type of data set: cell-based. As for the experimental part: For human sperm, hyperactivation was assessed via CASA following incubation for 1 hour in non-capacitating HTF buffer or capacitating HTF buffer supplemented with 25 mM HCO3 and 5 mg/ml BSA in the presence or absence of the indicated concentration of sAC inhibitor; 0.1% DMSO was used as vehicle control. For rescue experiments, sperm were incubated in the presence of 5 mM db-cAMP and 500 μM IBMX. 8 μl sperm suspension was placed onto a microscope slide (Gold Seal, Erie Scientific, Portsmouth, NH) and covered with a 18×18 mm coverslip (globe Scientific, Mahway, NJ) to create a […] imaging chamber. CASA was performed following analysis guidelines provided by the company, i.e., 30 frames were acquired at a rate of 60 Hz, at least 200 sperm were analyzed per condition. The following parameters were measured: mean path velocity (VAP, μm/sec), curvilinear velocity (VCL, μm/sec), straight-line velocity (VSL, μm/sec), amplitude of lateral head displacement (ALH, μm), and beat cross frequency (BCF, Hz). Human sperm were considered hyperactivated when presenting VCL ≥150 μm/sec, LIN <50%, and ALH ≥[…].
Motility parameters were determined 1 to 45 minutes post dilution, DMSO-treated non-capacitated and capacitated human sperm were used as control. To calculate the percentage of inhibition, the hyperactivation percentage of sperm diluted in inhibitor-containing- or inhibitor-free media was normalized to the hyperactivation percentage of vehicle-treated capacitated sperm at the respective time point and subtracted from 100%.

Data set [2] relates to epididymal mouse sperm. Briefly: Ex vivo sperm motility (CASA) from injected mice. Type of data set: in vivo. To be noted: for sperm motility ex vivo: one hour post-injection, diluted 1:200 in inhibitor-free media. As for the experimental part: For ex vivo assessment of mouse sperm from inhibitor-injected mice, sperm (25 μl) isolated at the indicated time points (1 hour to 24 hours post-injection) were loaded on a […] Leja slide (Hamliton Thorne) and placed on a microscope stage at 37° C. Sperm movements of 10 fields of at least 500 sperm were examined using computer-assisted sperm analysis (CASA) via Hamilton-Thorne digital image analyzer (IVOS II, Hamilton Thorne Research, Beverly, MA) with the following parameters: 30 frames, frame rate: 60 Hz, cell size: 30-170 μm^2.

The subject of data set [3] is mouse sperm. Briefly: Flagellar beat analysis of single sperm. Format: cell-based. The note with it: stimulation with 25 mM NaHCO3; 5 μM Example 1 or 10 nM Example 133. Here is the method:
An inverted dark-field video microscope (IX73; Olympus) with a 10× objective (mouse sperm) and a 20× objective (human sperm) (UPLSAPO, NA 0.8; Olympus) was combined with a high-speed camera (ORCA Fusion; Hamamatsu). Dark-field videos were recorded with a frame rate of 200 Hz. The temperature of the heated stage was set to 37° C. (stage top incubator WSKMX; TOKAI HIT).
An inverted dark-field video microscope (IX73; Olympus) with a 10×objective (mouse sperm) or a 20×objective (human sperm) (UPLSAPO, NA 0.8; Olympus) was combined with a high-speed camera (ORCA Fusion; Hamamatsu). Dark-field videos were recorded with a frame rate of 200 Hz. The temperature of the heated stage was set to 37° C. (stage top incubator WSKMX; TOKAI HIT). The images were preprocessed with the imageJ plugin SpermQ Preparator (Gaussian blur with sigma 0.5 px; Subtract background method with radius 5 px) and analyzed using the ImageJ plugin SpermQ [Reference 84]. The beat frequency was determined from the highest peak in the frequency spectrum of the curvature time course, obtained by Fast Fourier Transform.

Data set [4] relates to epididymal mouse sperm. Briefly: Ex vivo cAMP in epididymal sperm from injected mice. The note with it: 50 mg/kg i.p.; for bicarbonate-induced cAMP increase ex vivo: sperm isolated one hour after injection, minimally diluted. Here is the method: Sperm (50 μl) isolated at indicated time points (between 1 hour and 24 hours post-injection) were incubated in […] (1:20 dilution) or 450 μl (1:200 dilution) non-capacitating or capacitating TYH media for 12 minutes. Intracellular cAMP levels were quantified using the Direct cAMP ELISA (Enzo) as above.

Data set [5] deals with human sperm. The data set can be described thus: Flagellar beat analysis of single sperm. To be noted: stimulation with 25 mM NaHCO3; 0.2 μM Example 1 (FIG. 13), 10 nM Example 133.
From the text: Motile sperm were allowed to swim up into the HTF layer, while immotile sperm, as well as other cells or tissue debris, did remain in the ejaculate fraction.
In data set [6] the test system is fertility of male mice. The data set can be described thus: Timed mating of inhibitor-injected male mice. Type of data set: in vivo, mouse. To be noted: for Contraceptive efficacy: compared to vehicle-injected control. Here is the method: Single-housed naïve (i.e., uninjected and virgin) male and female C57B1/6 mice were acclimatized to reverse light cycle (dark: 11 am to 11 pm) for at least two weeks. […] Pregnancy and litter size were assessed in two ways. Either females were sacrificed 7 days following mating and implanted embryos counted, or females were permitted to go to term (21 days) and pups counted. A subset of the pups (both male and female) born from breakthrough pregnancies were permitted to mature and their fertility assessed in standard matings.

The test system of data set [7] is mouse sperm. Briefly: Intracellular cAMP in sperm in vitro. The note with it: for bicarbonate-induced cAMP rise: 5 μM Example 1 or 10 nM Example 133, capacitating media, 12 minutes. Format: cell-based. As for the experimental part: (§1) cAMP generation was measured in mouse and human sperm. For mouse sperm, aliquots of 2×10^6 mouse sperm were incubated for 12 minutes in the presence or absence of sAC inhibitor in non-capacitating or capacitating TYH buffer. For human sperm, aliquots of 2×10^6 human sperm were incubated for 30 minutes in the presence or absence of sAC inhibitor in non-capacitating or capacitating HTF buffer. In both cases, 0.1% DMSO was used as vehicle control.
(§2) After 5 min, 150 μl of sperm/inhibitor mix was diluted into 1.35 ml non-capacitating or capacitating media with no inhibitor. After 12 minutes (mouse sperm) or 30 minutes (human sperm), sperm were sedimented by centrifugation at 2,000×g for 3 minutes and lysed in 200 μl HCl for 10 minutes. Sperm lysates were centrifuged at 2,000×g for 3 minutes and the cAMP in the supernatant was acetylated and quantified using the Direct cAMP ELISA (Enzo).

For data set [8], the system named is human sperm. Briefly: Intracellular cAMP in sperm in vitro. To be noted: for bicarbonate-induced cAMP rise: 5 μM Example 1 or 10 nM Example 133, capacitating media. Format: cell-based. As for the experimental part:
as §1, §2

Data set [9] is described as follows: Serum levels after single i.p. injection. Format: in vivo, mouse. To be noted: single intraperitoneal (i.p.) injection.
Where [10] appears, read: 50 mg/kg i.p. to males, mating time 8 hours.
[11] abbreviates: 50 mg/kg i.p. to males, mating time 5 hours.
The mark [12] stands for this setting: 50 mg/kg i.p. to males, mating time 11 hours.
Setting [13] is: 50 mg/kg i.p., mating 4 days, 1 week post-injection (recovery of fertility).
Where [14] appears, read: preincubation 5 min in 5 μM Example 1 or 10 nM Example 133, then dilution (legend 1:10; text 100-fold).

This is an account of results in US20240239774A1, “SOLUBLE ADENYLYL CYCLASE (SAC) INHIBITORS AND USES THEREOF” (Cornell University, priority 2021, published 2024).

“And” between values parts separate entries of the source, which are not always exact repeats. Equal entries are not always repeated. “Also recorded” adds a separate entry of the source.

Turning to `Cc1c(Cc2ccccc2)c(-c2cc(Cl)nc(N)n2)nn1C` [Example 1, 4-(4-benzyl-1,5-dimethyl-pyrazol-3-yl)-6-chloro-pyrimidin-2-amine], in [1], the “hyperactivation of human sperm in vitro” value is given as “blocked hyperactivation” and the “inhibition of hyperactivation following dilution into inhibitor-free media” value is “lost”. Moreover, the “sperm motility ex vivo” value in data set [2] (50 mg/kg i.p.) is on record as “indistinguishable from sperm isolated from vehicle-injected mice”. For the same molecule, the “bicarbonate-induced change in flagellar beating / beat frequency” value in data set [3] was “prevents bicarbonate-induced changes in flagellar beating pattern”. Also, the “bicarbonate-responsive cAMP synthesis ex vivo” value in [4] (sperm diluted 1:200 ex vivo) was “restored”. Further, the “bicarbonate-induced cAMP increase ex vivo” value in data set [4] is “absent”. In [5], the “bicarbonate-induced change in flagellar beating / beat frequency” value is listed as “prevents bicarbonate-induced changes in flagellar beating pattern”. Also, in [6] (setting [10]), the “Pregnancy pairings (pregnancies per total pairings)” value is given as “(14/45)”, the Pregnancy rate turned out to be 31.1% and the Contraceptive efficacy came out at 25%. Also, the “bicarbonate-induced cAMP rise” value in data set [7] was “blocks the bicarbonate-induced cAMP rise”. In addition, the “bicarbonate-induced cAMP rise” value in data set [8] is “blocks the bicarbonate-induced cAMP rise”. In addition, the “time to maximum serum levels (C max)” value in [9] is at most 7.5 min.

On to `Nc1nc(Cl)cc(-c2nn(C(F)F)cc2Cc2ccccc2OCCN2CCOC[C@H]2CO)n1` [Example 133], for which the “hyperactivation of human sperm in vitro” value in data set [1] was “blocked hyperactivation”. For the same molecule, in data set [1], the “inhibition of hyperactivation following dilution into inhibitor-free media” value is “persisted”. In addition, the “sperm that recovered (progressive) motility” value in data set [2] (50 mg/kg i.p., 9 hours post injection, diluted 1:200) turned out to be 20%. Besides, the “sperm motility ex vivo” value in data set [2] (50 mg/kg i.p.) is “essentially immotile”. Further, the cytotoxicity to sperm result in data set [2] (exogenous membrane-permeable cAMP rescued motility) is on record as “not cytotoxic”. Further, the “bicarbonate-induced change in flagellar beating / beat frequency” value in data set [3] and in data set [5] was “more potent than Example 1” throughout. Moreover, the “cAMP responsiveness ex vivo following dilution” value in data set [4] (9 hours post-injection, diluted 1:200) was “partially recovered”. In [4] (sperm isolated 1 hour or 4.5 hours post-injection, diluted 1:200), the “cAMP response ex vivo following dilution” value is “remained inhibited”. For the same molecule, the “bicarbonate-induced cAMP increase ex vivo” value in data set [4] is recorded as “absent”. The “mouse behavior, movements and mating behaviors” value in data set [6] (50 mg/kg i.p.) was “did not adversely affect mouse behavior”. Moreover, the “Pregnancy pairings (pregnancies per total pairings)” value in data set [6] (setting [11]) was “(3/92)”; in [6] (setting [10]) it was “(3/40)”; in data set [6] (setting [12]), “(7/45)”; in [6] (setting [13]) it was “(13/14)”. In addition, the Pregnancy rate in [6] (setting [11]) was 3.3% and 3.2%; in data set [6] (setting [10]), 7.2% and 7.5%; in data set [6] (setting [12]), 16% and 15.6%; in data set [6] (setting [13]), 93% and 92.9%. Moreover, the Contraceptive efficacy in [6] (setting [11]) amounted to 90%; in data set [6] (setting [10]), 82%; in [6] (setting [12]), 65%. The “bicarbonate-induced cAMP rise” value in [7] and in [8] was “completely block” in each case. The “inhibition of bicarbonate-induced cAMP synthesis after dilution into inhibitor-free media” value in data set [7] (setting [14]) and in [8] (setting [14]) was “survived a 100-fold dilution; also recorded: inhibits capacitation induced cAMP rise in diluted sperm” in each case. In [9], the “time to maximum serum levels (C max)” value was at most 7.5 min.
